This is an account of results in patent US6777412B2 (priority 1990, dated 2004).

Holding throughout (assay type): in vivo
One assay relates to Puccinia recondita. Put plainly: Foliar fungal disease test on plants: Puccinia recondita (Pr). As to the method: (§1) The compounds were tested against a variety of foliar fungal diseases of plants. The technique employed was as follows.
(§2) The plants were grown in John Innes Potting Compost (No.1 or 2) in 4 cm diameter minipots. The test compounds were formulated either by bead milling with aqueous Dispersol T or as a solution in acetone or acetone/ethanol which was diluted to the required concentration immediately before use. For the foliage diseases, the formulations (100 ppm active ingredient except where otherwise indicated) were sprayed onto the foliage and applied to the roots of the plants in the soil. The sprays were applied to maximum retention and the root drenches to a final concentration equivalent to approximately 40 ppm a.i. in dry soil. Tween 20, to give a final concentration of 0.05%, was added when the sprays were applied to cereals.
(§3) For most of the tests the compound was applied to the soil (roots) and to the foliage (by spraying) one or two days before the plant was inoculated with the disease. An exception was the test on Erysiphe graminis in which the plants were inoculated 24 hours before treatment. Foliar pathogens were applied by spray as spore suspensions onto the leaves of test plants. After inoculation, the plants were put into an appropriate environment to allow infection to proceed and then incubated until the disease was ready for assessment. The period between inoculation and assessment varied from four to fourteen days according to the disease and environment.
(§4) The disease control vas recorded by the following grading:
(§5) 3=trace-5% of disease on untreated plants
(§6) 2=6-25% of disease on untreated plants
(§7) 1=26-59% of disease on untreated plants
(§8) 0=60-100% of disease on untreated plants

The next assay concerns Erysiphe graminis hordei. Put plainly: Foliar fungal disease test on plants: Erysiphe graminis hordei (Egh). The method, then:
as §1, §2, §3, §4, §5, §6, §7, §8
Egh Erysiphe graminis hordei

Another assay has as its system Pyricularia oryzae.
Another assay has as its system Venturia inaequalis. Put plainly: Foliar fungal disease test on plants: Venturia inaequalis (Vi). As to the method: as §1, §2, §3, §4, §5, §6, §7, §8
The subject of another assay is Plasmopara viticola. Put plainly: Foliar fungal disease test on plants: Plasmopara viticola (Pv). As to the method: as §1, §2, §3, §4, §5, §6, §7, §8
Assay [1] has as its system Phytophthora infestans lycopersici.
Where [2] appears, read: 100 ppm active ingredient foliar spray plus root drench (approx. 40 ppm a.i. in dry soil), one or two days before inoculation.
The mark [3] stands for this setting: 100 ppm active ingredient foliar spray plus root drench (approx. 40 ppm a.i. in dry soil), plants inoculated 24 hours before treatment.

Read-outs that look alike come from different tables or passages of the source. Marks after values point to notes of the source that are not given here.

With `CO/C=C(/C(=O)OC)c1ccccc1Oc1cc(Sc2ccccc2)ncn1` [1 of Table I], in the assay on Puccinia recondita (setting [2]), the “disease control grading, Pr (Puccinia recondita)” value (“disease control grading, Pr” below) is 4 (4=no disease). Besides, in the assay with Erysiphe graminis hordei (setting [3]), the “disease control grading, Egh (Erysiphe graminis hordei)” value (“disease control grading, Egh” for short) is reported as 4 (4=no disease). The “disease control grading, Po (Pyricularia oryzae)” value (shortened to “disease control grading, Po”) in the assay with Pyricularia oryzae (setting [2]) is recorded as 4 (4=no disease). Moreover, the “disease control grading, Vi (Venturia inaegualis)” value (“disease control grading, Vi” for short) with Venturia inaequalis (setting [2]) is 4 (4=no disease). For the same compound, the “disease control grading, Pv (Plasmopara viticola)” value (shortened to “disease control grading, Pv”) in the assay with Plasmopara viticola (setting [2]) is listed as 4 (4=no disease). The “disease control grading, Pil (Phytophthora infestans lycopersici)” value (shortened to “disease control grading, Pil”) in assay [1] (setting [2]) is given as 4 (4=no disease).
For `CO/C=C(/C(=O)OC)c1ccccc1Oc1cc([S+]([O-])c2ccccc2)ncn1` (stereo not shown) [2 of Table I], the “disease control grading, Pr” value with Puccinia recondita (10 ppm foliar application only) is 0^a (0=60-100% of disease on untreated plants). The “disease control grading, Egh” value in the assay on Erysiphe graminis hordei (10 ppm foliar application only) was 0^a (0=60-100% of disease on untreated plants). The “disease control grading, Po” value in the assay on Pyricularia oryzae (10 ppm foliar application only) is given as 0^a (0=60-100% of disease on untreated plants). The “disease control grading, Vi” value in the assay with Venturia inaequalis (10 ppm foliar application only) is listed as 0^a (0=60-100% of disease on untreated plants). In addition, the “disease control grading, Pv” value in the assay with Plasmopara viticola (10 ppm foliar application only) was 4^a (4=no disease). The “disease control grading, Pil” value in assay [1] (10 ppm foliar application only) is listed as 0^a (0=60-100% of disease on untreated plants).
In the case of `CO/C=C(/C(=O)OC)c1ccccc1Oc1cc(S(=O)(=O)c2ccccc2)ncn1` [3 of Table I], in the assay with Puccinia recondita (setting [2]), the “disease control grading, Pr” value is reported as 3 (3=trace-5% of disease on untreated plants). Besides, the “disease control grading, Egh” value with Erysiphe graminis hordei (setting [3]) is listed as 0 (0=60-100% of disease on untreated plants). Besides, the “disease control grading, Po” value in the assay with Pyricularia oryzae (setting [2]) is listed as 2 (2=6-25% of disease on untreated plants). Further, the “disease control grading, Vi” value in the assay on Venturia inaequalis (setting [2]) is listed as 4 (4=no disease). Moreover, the “disease control grading, Pv” value in the assay with Plasmopara viticola (setting [2]) is recorded as 4 (4=no disease). The “disease control grading, Pil” value in assay [1] (setting [2]) is on record as 0 (0=60-100% of disease on untreated plants).
As to `CO/C=C(/C(=O)OC)c1ccccc1Oc1cc(OCCc2ccccc2)ncn1` [96 of Table I], the “disease control grading, Pr” value with Puccinia recondita (setting [2]) is on record as 4 (4=no disease). Also, the “disease control grading, Egh” value with Erysiphe graminis hordei (setting [3]) is recorded as 4 (4=no disease). Further, the “disease control grading, Po” value in the assay with Pyricularia oryzae (setting [2]) was 3 (3=trace-5% of disease on untreated plants). For the same compound, the “disease control grading, Pv” value in the assay with Plasmopara viticola (setting [2]) is listed as 4 (4=no disease). In assay [1] (setting [2]), the “disease control grading, Pil” value is 4 (4=no disease).
Regarding `CO/C=C(/C(=O)OC)c1ccccc1Oc1cc(Sc2ccccc2C#N)ncn1` [134 of Table I], the “disease control grading, Pr” value in the assay with Puccinia recondita (setting [2]) is listed as 4 (4=no disease). For the same compound, the “disease control grading, Egh” value in the assay with Erysiphe graminis hordei (setting [3]) is given as 4 (4=no disease). For the same compound, in the assay with Pyricularia oryzae (setting [2]), the “disease control grading, Po” value was 2 (2=6-25% of disease on untreated plants). Besides, the “disease control grading, Pv” value in the assay with Plasmopara viticola (setting [2]) is given as 4 (4=no disease).
For the compound `CO/C=C(/C(=O)OC)c1ccccc1Oc1cc([S+]([O-])c2ccccn2)ncn1` (stereo not shown) [355 of Table I], the “disease control grading, Pr” value in the assay on Puccinia recondita (setting [2]) is 0 (0=60-100% of disease on untreated plants). Besides, in the assay on Erysiphe graminis hordei (setting [3]), the “disease control grading, Egh” value is listed as 4 (4=no disease). The “disease control grading, Vi” value in the assay with Venturia inaequalis (setting [2]) is reported as 4 (4=no disease). In addition, in the assay with Plasmopara viticola (setting [2]), the “disease control grading, Pv” value was 0 (0=60-100% of disease on untreated plants). In addition, the “disease control grading, Pil” value in assay [1] (setting [2]) was 0 (0=60-100% of disease on untreated plants).
`CO/C=C(/C(=O)OC)c1ccccc1Oc1cc(OCCc2ccccc2C#N)ncn1` [357 of Table I]: the “disease control grading, Pr” value in the assay with Puccinia recondita (setting [2]) is listed as 4 (4=no disease). Further, in the assay with Erysiphe graminis hordei (setting [3]), the “disease control grading, Egh” value is 4 (4=no disease). Moreover, the “disease control grading, Po” value with Pyricularia oryzae (setting [2]) is reported as 4 (4=no disease). For the same compound, the “disease control grading, Vi” value in the assay with Venturia inaequalis (setting [2]) is 4 (4=no disease). For the same compound, in the assay with Plasmopara viticola (setting [2]), the “disease control grading, Pv” value is listed as 4 (4=no disease). In assay [1] (setting [2]), the “disease control grading, Pil” value is recorded as 4 (4=no disease).
In the case of `CO/C=C(/C(=O)OC)c1ccccc1Oc1cc(OCCc2ccccc2[N+](=O)[O-])ncn1` [358 of Table I], in the assay with Puccinia recondita (setting [2]), the “disease control grading, Pr” value is reported as 4 (4=no disease). In the assay on Erysiphe graminis hordei (setting [3]), the “disease control grading, Egh” value is given as 4 (4=no disease). Besides, the “disease control grading, Po” value in the assay with Pyricularia oryzae (setting [2]) is given as 4 (4=no disease). Also, in the assay with Venturia inaequalis (setting [2]), the “disease control grading, Vi” value is reported as 4 (4=no disease). For the same compound, in the assay with Plasmopara viticola (setting [2]), the “disease control grading, Pv” value is 4 (4=no disease). Further, the “disease control grading, Pil” value in assay [1] (setting [2]) was 4 (4=no disease).
As for `CO/C=C(/C(=O)OC)c1ccccc1Oc1cc(OCCCc2ccccc2)ncn1` [360 of Table I], the “disease control grading, Pr” value with Puccinia recondita (setting [2]) is reported as 4 (4=no disease). In addition, the “disease control grading, Egh” value in the assay on Erysiphe graminis hordei (setting [3]) is recorded as 4 (4=no disease). In the assay on Pyricularia oryzae (setting [2]), the “disease control grading, Po” value is listed as 4 (4=no disease). In the assay with Venturia inaequalis (setting [2]), the “disease control grading, Vi” value is reported as 4 (4=no disease). In addition, the “disease control grading, Pv” value in the assay on Plasmopara viticola (setting [2]) is 4 (4=no disease). Moreover, the “disease control grading, Pil” value in assay [1] (setting [2]) was 4 (4=no disease).
As to `CO/C=C(/C(=O)OC)c1ccccc1Oc1cc(OCCCc2ccccc2[N+](=O)[O-])ncn1` [361 of Table I], in the assay on Puccinia recondita (setting [2]), the “disease control grading, Pr” value was 4 (4=no disease). Further, in the assay with Erysiphe graminis hordei (setting [3]), the “disease control grading, Egh” value was 4 (4=no disease). The “disease control grading, Po” value with Pyricularia oryzae (setting [2]) is 4 (4=no disease). The “disease control grading, Vi” value in the assay with Venturia inaequalis (setting [2]) is given as 4 (4=no disease). In addition, in the assay on Plasmopara viticola (setting [2]), the “disease control grading, Pv” value is 4 (4=no disease). Further, the “disease control grading, Pil” value in assay [1] (setting [2]) was 4 (4=no disease).
For the compound `CO/C=C(/C(=O)OC)c1ccccc1Oc1cc(OCCc2ccccc2C(F)(F)F)ncn1` [363 of Table I], in the assay on Puccinia recondita (setting [2]), the “disease control grading, Pr” value was 4 (4=no disease). Moreover, the “disease control grading, Egh” value in the assay with Erysiphe graminis hordei (setting [3]) is reported as 4 (4=no disease). For the same compound, the “disease control grading, Po” value in the assay on Pyricularia oryzae (setting [2]) is on record as 4 (4=no disease). Moreover, in the assay on Venturia inaequalis (setting [2]), the “disease control grading, Vi” value is recorded as 4 (4=no disease). Besides, the “disease control grading, Pv” value in the assay with Plasmopara viticola (setting [2]) is 4 (4=no disease). The “disease control grading, Pil” value in assay [1] (setting [2]) is on record as 4 (4=no disease).
For the compound `CO/C=C(/C(=O)OC)c1ccccc1Oc1cc(OCCc2ccccc2C)ncn1` [364 of Table I], the “disease control grading, Pr” value with Puccinia recondita (setting [2]) is listed as 4 (4=no disease). Moreover, the “disease control grading, Egh” value in the assay on Erysiphe graminis hordei (setting [3]) is on record as 4 (4=no disease). In addition, in the assay on Pyricularia oryzae (setting [2]), the “disease control grading, Po” value is 4 (4=no disease). The “disease control grading, Vi” value in the assay with Venturia inaequalis (setting [2]) is listed as 4 (4=no disease). Further, the “disease control grading, Pv” value in the assay on Plasmopara viticola (setting [2]) was 4 (4=no disease). Moreover, in assay [1] (setting [2]), the “disease control grading, Pil” value was 4 (4=no disease).
For `CO/C=C(/C(=O)OC)c1ccccc1Oc1cc(Nc2ccccc2O)ncn1` [379 of Table I], the “disease control grading, Pr” value with Puccinia recondita (setting [2]) is on record as 3 (3=trace-5% of disease on untreated plants). For the same compound, the “disease control grading, Egh” value with Erysiphe graminis hordei (setting [3]) is given as 0 (0=60-100% of disease on untreated plants). In the assay with Pyricularia oryzae (setting [2]), the “disease control grading, Po” value is 0 (0=60-100% of disease on untreated plants). Further, the “disease control grading, Pv” value in the assay with Plasmopara viticola (setting [2]) is 4 (4=no disease). Further, the “disease control grading, Pil” value in assay [1] (setting [2]) is 0 (0=60-100% of disease on untreated plants).
